Source: US20250009737A1, “COMPOUNDS AND METHODS FOR THE TARGETED DEGRADATION OF ANDROGEN RECEPTOR” (Arvinas Operations, Inc., priority 2023, published 2025)

Columns and labels:
Format in all cases: in vitro ADME
CYP2C9 mRNA = CYP2C9 mRNA induction in cryopreserved human hepatocytes; settings: 0.03-30 μM; for CYP2C9 mRNA Fold induction: human hepatocytes, 48 hours
OATP1B1 = molecular target: T1, OATP1B1 (Homo sapiens, UniProt Q9Y6L6); test: OATP1B1 uptake transporter substrate assay; set-up: expressed in transfected cells; settings: OATP1B1-expressing vs control cell
T1 sequence (Q9Y6L6 1-691): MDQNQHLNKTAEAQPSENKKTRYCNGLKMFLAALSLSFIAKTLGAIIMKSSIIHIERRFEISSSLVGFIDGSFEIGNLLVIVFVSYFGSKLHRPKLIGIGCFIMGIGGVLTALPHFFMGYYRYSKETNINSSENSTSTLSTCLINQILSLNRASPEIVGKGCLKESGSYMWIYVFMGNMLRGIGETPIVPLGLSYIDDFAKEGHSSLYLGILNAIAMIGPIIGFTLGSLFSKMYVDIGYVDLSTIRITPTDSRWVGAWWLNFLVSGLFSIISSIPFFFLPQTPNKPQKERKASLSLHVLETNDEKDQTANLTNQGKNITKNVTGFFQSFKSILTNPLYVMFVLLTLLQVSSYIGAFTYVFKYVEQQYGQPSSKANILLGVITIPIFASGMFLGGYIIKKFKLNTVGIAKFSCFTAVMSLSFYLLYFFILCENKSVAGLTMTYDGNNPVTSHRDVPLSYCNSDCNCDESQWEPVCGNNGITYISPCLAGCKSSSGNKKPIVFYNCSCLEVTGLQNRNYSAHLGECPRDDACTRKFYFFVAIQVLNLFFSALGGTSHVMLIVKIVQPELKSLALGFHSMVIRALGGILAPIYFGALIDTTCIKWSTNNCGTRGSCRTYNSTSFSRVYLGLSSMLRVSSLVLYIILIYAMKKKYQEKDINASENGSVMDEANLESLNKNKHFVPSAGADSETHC
Description: The potential of Compound A to act as an efflux transporter Pgp and BCRP as well as uptake transporter OATP1B1 and 1B3 were assessed in Caco-2 and single transporter over-expressed HEK29 cells, respectively.
The potential of Compound A to act as a substrate for Pgp and BCRP was examined in Caco-2 cells at the concentrations of 0.075, 0.75, 3.75 and 7.5 μM containing 1% of BSA. After 120 min incubation, the bidirectional permeability of Compound A was determined by LC-MS/MS. The involvement of Compound A as a substrate of OATP1B1 and OATP1B3 was assessed in the uptake transporter substrate assays at 4 concentrations (0.1, 0.5, 1 and 5 μM). Compound A in cell lysates was determined by LC-MS/MS.

BCRP = molecular target: T2, BCRP (Homo sapiens, UniProt Q9UNQ0); test: BCRP inhibition in inside-out membrane vesicles from HEK293; set-up: expressed in transfected cells; host or cells: HEK293 (inside-out membrane vesicles); settings: substrate Rosuvastatin (1 μM)
T2 sequence (Q9UNQ0 1-655): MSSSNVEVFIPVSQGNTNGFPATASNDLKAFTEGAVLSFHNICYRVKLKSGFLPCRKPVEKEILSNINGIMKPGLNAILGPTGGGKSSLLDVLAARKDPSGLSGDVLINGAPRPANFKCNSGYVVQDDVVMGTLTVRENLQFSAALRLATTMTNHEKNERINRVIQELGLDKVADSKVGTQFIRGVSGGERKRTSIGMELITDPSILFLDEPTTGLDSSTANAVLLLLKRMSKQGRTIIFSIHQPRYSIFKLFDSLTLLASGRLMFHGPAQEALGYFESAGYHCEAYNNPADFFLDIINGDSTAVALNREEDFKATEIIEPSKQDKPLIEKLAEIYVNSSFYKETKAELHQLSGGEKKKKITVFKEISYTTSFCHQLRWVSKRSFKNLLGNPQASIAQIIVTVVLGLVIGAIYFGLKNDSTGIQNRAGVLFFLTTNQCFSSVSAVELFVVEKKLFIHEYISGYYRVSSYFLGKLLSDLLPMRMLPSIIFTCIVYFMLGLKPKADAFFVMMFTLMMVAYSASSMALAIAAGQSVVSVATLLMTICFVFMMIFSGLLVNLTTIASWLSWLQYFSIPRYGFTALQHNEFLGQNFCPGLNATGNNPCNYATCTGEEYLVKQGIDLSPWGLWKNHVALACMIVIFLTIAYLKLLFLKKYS
Description: (§1) In addition, the inhibition potential against efflux transporters (P-glycoprotein (Pgp) and breast cancer resistance protein (BCRP)) and uptake transporters (MATE1, MATE2-K, OATP1B1, OATP1B3, OAT1, OAT3, and OCT2) was assessed using single transporter over-expressed cell monolayers (MDCK II or HEK293) or inside-out vesicles.
(§2) The potential of Compound A to inhibit Pgp or BCRP was tested for bidirectional transport of the probe substrates in Pgp or BCRP-expressed MDCKII and control monolayers at Compound A concentrations of 0.07-5 μM. Pgp and BCR inhibition were tested in inside-out membrane vesicles prepared from HEK293 overexpressing human Pgp and BCR at concentrations of 0.01-9 μM Compound A in the presence of 4 mM MgATP or MgAMP.

MATE1 = molecular target: T3, MATE1 (Homo sapiens, UniProt Q96FL8); test: MATE1 uptake transporter inhibition in MDCKII or HEK293 cells
T3 construct: expressed in transfected cells; host or cells: MDCKII or HEK293
T3 sequence (Q96FL8 1-570): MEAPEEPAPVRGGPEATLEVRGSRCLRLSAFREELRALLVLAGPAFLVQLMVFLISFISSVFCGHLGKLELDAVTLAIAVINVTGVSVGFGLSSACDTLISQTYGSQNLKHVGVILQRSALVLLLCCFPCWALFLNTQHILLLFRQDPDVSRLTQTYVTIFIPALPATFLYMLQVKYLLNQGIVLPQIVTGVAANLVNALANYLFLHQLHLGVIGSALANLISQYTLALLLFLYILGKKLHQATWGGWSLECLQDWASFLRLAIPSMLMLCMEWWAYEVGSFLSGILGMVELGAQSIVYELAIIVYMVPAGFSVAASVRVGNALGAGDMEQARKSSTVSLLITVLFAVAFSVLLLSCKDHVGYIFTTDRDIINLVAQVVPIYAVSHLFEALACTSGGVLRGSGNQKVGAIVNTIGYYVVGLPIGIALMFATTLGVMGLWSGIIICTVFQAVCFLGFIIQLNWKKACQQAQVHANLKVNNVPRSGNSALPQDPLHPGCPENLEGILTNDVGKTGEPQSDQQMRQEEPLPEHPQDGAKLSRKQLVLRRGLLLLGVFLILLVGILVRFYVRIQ
Description: as §1, §2

CYP2C9 mRNA Fold induction (CYP2C9 mRNA; Donor 1): <2 Fold
CYP2C9 mRNA Fold induction (CYP2C9 mRNA; Donor 2): <2 Fold
CYP2C9 mRNA Fold induction (CYP2C9 mRNA; Donor 3): <2 Fold
Induction of CYP2C9 mRNA (CYP2C9 mRNA; all three donors of human hepatocytes): did not induce
Fold accumulation, OATP1B1 (OATP1B1): < 2 fold
Substrate for OATP1B1 (OATP1B1; 0.1, 0.5, 1 and 5 μM): not a substrate
inhibition at 1 µM (BCRP; human, probe Rosuvastatin (1 μM), read-out: Maximal % Inhibition): 95%
IC50 (BCRP): 0.21 µM
IC50 (MATE1; MATE1, substrate Metformin (10 μM)): 3.05 µM
EC50 (MATE1; MATE1 inhibition): 3.05 µM
inhibition at 3.75 µM (MATE1; MDCKII or HEK293 cells stably expressing MATE1, probe Metformin (10 μM), at a concentration of 3.75 μM): 52%
Compound: COc1cc(O[C@H]2C(C)(C)[C@H](NC(=O)c3ccc(N4CCC(CN5CCN(c6ccc(C(=O)N[C@H]7CCC(=O)NC7=O)c(F)c6)CC5)CC4)cc3)C2(C)C)ccc1C#N [Compound A, 4-(4-((1-(4-(((1R,3R)-3-(4-cyano-3-methoxyphenoxy)-2,2,4,4-tetramethylcyclobutyl)carbamoyl)phenyl)piperidin-4-yl)methyl)piperazin-1-yl)-N—((S)-2,6-dioxopiperidin-3-yl)-2-fluorobenzamide]
